Measurements from patent US10765114B2, “4-amino-6-(pyridyl and 2-substitutedphenyl)-picolinates and 6-amino-2-(pyridyl and 2-substitutedphenyl)-pyrimidine-4-carboxylates and their use as herbicides” (Dow AgroSciences LLC, priority 2013, dated 2020).

Tested on: Key Grass and Sedge Weeds as well as Grass Crops
Experiment: Post-Emergent Test II (Table 6)
Format: in vivo
Details: post-emergence, 336 h, CYPSS, 70 g ai/ha, 14 days after application, read-out: Visual Growth Reduction (%) 14 Days After Application CYPSS
In short: (§1)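 Visual injury ratings (0 = no injury, 100 = complete kill) were taken 14 days after treatment relative to untreated plants. Seedlings at the first or second true leaf stage received an overhead spray at 187 L/ha, and solvent-blank sprayed plants served as controls.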

SMILES | pest or weed control at 70 g/ha [%]
COC(=O)c1nc(-c2ccc(F)nc2)c(F)c(N)c1Cl [Compound 23] | 0 to 29

Same assay, conditions: post-emergence, 336 h, CYPSS, 140 g ai/ha, 14 days after application, read-out: Visual Growth Reduction (%) 14 Days After Application CYPSS

SMILES | pest or weed control at 140 g/ha [%]
COC(=O)c1nc(-c2ccc(F)nc2)c(F)c(N)c1Cl [Compound 23] | 0 to 29

Same assay, conditions: post-emergence, 336 h, DIGSA: crabgrass (Digitaria sanguinalis), 70 g ai/ha, 14 days after application, read-out: Visual Growth Reduction (%) 14 Days After Application DIGSA

SMILES | pest or weed control at 70 g/ha [%]
COC(=O)c1nc(-c2ccc(F)nc2)c(F)c(N)c1Cl [Compound 23] | 30 to 44

Same assay, conditions: post-emergence, 336 h, DIGSA: crabgrass (Digitaria sanguinalis), 140 g ai/ha, 14 days after application, read-out: Visual Growth Reduction (%) 14 Days After Application DIGSA

SMILES | pest or weed control at 140 g/ha [%]
COC(=O)c1nc(-c2ccc(F)nc2)c(F)c(N)c1Cl [Compound 23] | 45 to 59

Same assay, conditions: post-emergence, 336 h, ECHSS, 70 g ai/ha, 14 days after application, read-out: Visual Growth Reduction (%) 14 Days After Application ECHSS

SMILES | pest or weed control at 70 g/ha [%]
COC(=O)c1nc(-c2ccc(F)nc2)c(F)c(N)c1Cl [Compound 23] | 60 to 74

Same assay, conditions: post-emergence, 336 h, ECHSS, 140 g ai/ha, 14 days after application, read-out: Visual Growth Reduction (%) 14 Days After Application ECHSS

SMILES | pest or weed control at 140 g/ha [%]
COC(=O)c1nc(-c2ccc(F)nc2)c(F)c(N)c1Cl [Compound 23] | 75 to 84

Same assay, conditions: post-emergence, 336 h, ORYSS (crop), 70 g ai/ha, 14 days after application, read-out: Visual Growth Reduction (%) 14 Days After Application ORYSS

SMILES | pest or weed control at 70 g/ha [%]
COC(=O)c1nc(-c2ccc(F)nc2)c(F)c(N)c1Cl [Compound 23] | 0 to 29

Same assay, conditions: post-emergence, 336 h, ORYSS (crop), 140 g ai/ha, 14 days after application, read-out: Visual Growth Reduction (%) 14 Days After Application ORYSS

SMILES | pest or weed control at 140 g/ha [%]
COC(=O)c1nc(-c2ccc(F)nc2)c(F)c(N)c1Cl [Compound 23] | 0 to 29

Same assay, conditions: post-emergence, 336 h, SORVU: grain sorghum (Sorghum vulgare), 70 g ai/ha, 14 days after application, read-out: Visual Growth Reduction (%) 14 Days After Application SORVU

SMILES | pest or weed control at 70 g/ha [%]
COC(=O)c1nc(-c2ccc(F)nc2)c(F)c(N)c1Cl [Compound 23] | 0 to 29

Same assay, conditions: post-emergence, 336 h, SORVU: grain sorghum (Sorghum vulgare), 140 g ai/ha, 14 days after application, read-out: Visual Growth Reduction (%) 14 Days After Application SORVU

SMILES | pest or weed control at 140 g/ha [%]
COC(=O)c1nc(-c2ccc(F)nc2)c(F)c(N)c1Cl [Compound 23] | 0 to 29

Same assay, conditions: post-emergence, 336 h, TRZSS (crop), 70 g ai/ha, 14 days after application, read-out: Visual Growth Reduction (%) 14 Days After Application TRZSS

SMILES | pest or weed control at 70 g/ha [%]
COC(=O)c1nc(-c2ccc(F)nc2)c(F)c(N)c1Cl [Compound 23] | 0 to 29

Same assay, conditions: post-emergence, 336 h, TRZSS (crop), 140 g ai/ha, 14 days after application, read-out: Visual Growth Reduction (%) 14 Days After Application TRZSS

SMILES | pest or weed control at 140 g/ha [%]
COC(=O)c1nc(-c2ccc(F)nc2)c(F)c(N)c1Cl [Compound 23] | 0 to 29

Same assay, conditions: post-emergence, 336 h, ZEAMX: maize, corn (Zea mays), 70 g ai/ha, 14 days after application, read-out: Visual Growth Reduction (%) 14 Days After Application ZEAMX

SMILES | pest or weed control at 70 g/ha [%]
COC(=O)c1nc(-c2ccc(F)nc2)c(F)c(N)c1Cl [Compound 23] | 0 to 29

Same assay, conditions: post-emergence, 336 h, ZEAMX: maize, corn (Zea mays), 140 g ai/ha, 14 days after application, read-out: Visual Growth Reduction (%) 14 Days After Application ZEAMX

SMILES | pest or weed control at 140 g/ha [%]
COC(=O)c1nc(-c2ccc(F)nc2)c(F)c(N)c1Cl [Compound 23] | 45 to 59

Tested on: Key Broadleaf Weed and Crop Species
Experiment: Post-Emergent Test II (Table 5)
Format: in vivo
Details: Abutilon theophrasti, post-emergence, 336 h, ABUTH: velvetleaf (Abutilon theophrasti), application rate 70 (kg ai/ha; footnote: g ai/ha), read-out: Visual Growth Reduction (%) 14 Days After Application ABUTH
In short: as §1

SMILES | pest or weed control at 70 g/ha [%]
COC(=O)c1nc(-c2ccc(F)nc2)c(F)c(N)c1Cl [Compound 23] | 75 to 84

Same assay, conditions: Abutilon theophrasti, post-emergence, 336 h, ABUTH: velvetleaf (Abutilon theophrasti), application rate 140 (kg ai/ha; footnote: g ai/ha), read-out: Visual Growth Reduction (%) 14 Days After Application ABUTH

SMILES | pest or weed control at 140 g/ha [%]
COC(=O)c1nc(-c2ccc(F)nc2)c(F)c(N)c1Cl [Compound 23] | 85 to 94

Same assay, conditions: Amaranthus retroflexus, post-emergence, 336 h, AMARE: redroot pigweed (Amaranthus retroflexus), application rate 70 (kg ai/ha; footnote: g ai/ha), read-out: Visual Growth Reduction (%) 14 Days After Application AMARE

SMILES | pest or weed control at 70 g/ha [%]
COC(=O)c1nc(-c2ccc(F)nc2)c(F)c(N)c1Cl [Compound 23] | 95 to 100

Same assay, conditions: Amaranthus retroflexus, post-emergence, 336 h, AMARE: redroot pigweed (Amaranthus retroflexus), application rate 140 (kg ai/ha; footnote: g ai/ha), read-out: Visual Growth Reduction (%) 14 Days After Application AMARE

SMILES | pest or weed control at 140 g/ha [%]
COC(=O)c1nc(-c2ccc(F)nc2)c(F)c(N)c1Cl [Compound 23] | 95 to 100

Same assay, conditions: Brassica napus, post-emergence, 336 h, BRSSS: oilseed rape, canola (Brassica napus), application rate 70 (kg ai/ha; footnote: g ai/ha), read-out: Visual Growth Reduction (%) 14 Days After Application BRSSS

SMILES | pest or weed control at 70 g/ha [%]
COC(=O)c1nc(-c2ccc(F)nc2)c(F)c(N)c1Cl [Compound 23] | 45 to 59

Same assay, conditions: Brassica napus, post-emergence, 336 h, BRSSS: oilseed rape, canola (Brassica napus), application rate 140 (kg ai/ha; footnote: g ai/ha), read-out: Visual Growth Reduction (%) 14 Days After Application BRSSS

SMILES | pest or weed control at 140 g/ha [%]
COC(=O)c1nc(-c2ccc(F)nc2)c(F)c(N)c1Cl [Compound 23] | 75 to 84

Same assay, conditions: Chenopodium album, post-emergence, 336 h, CHEAL: lambsquarters (Chenopodium album), application rate 70 (kg ai/ha; footnote: g ai/ha), read-out: Visual Growth Reduction (%) 14 Days After Application CHEAL

SMILES | pest or weed control at 70 g/ha [%]
COC(=O)c1nc(-c2ccc(F)nc2)c(F)c(N)c1Cl [Compound 23] | 95 to 100

Same assay, conditions: Chenopodium album, post-emergence, 336 h, CHEAL: lambsquarters (Chenopodium album), application rate 140 (kg ai/ha; footnote: g ai/ha), read-out: Visual Growth Reduction (%) 14 Days After Application CHEAL

SMILES | pest or weed control at 140 g/ha [%]
COC(=O)c1nc(-c2ccc(F)nc2)c(F)c(N)c1Cl [Compound 23] | 95 to 100

Same assay, conditions: Euphorbia heterophylla, post-emergence, 336 h, EPHHL: wild poinsettia (Euphorbia heterophylla), application rate 70 (kg ai/ha; footnote: g ai/ha), read-out: Visual Growth Reduction (%) 14 Days After Application EPHHL

SMILES | pest or weed control at 70 g/ha [%]
COC(=O)c1nc(-c2ccc(F)nc2)c(F)c(N)c1Cl [Compound 23] | 75 to 84

Same assay, conditions: Euphorbia heterophylla, post-emergence, 336 h, EPHHL: wild poinsettia (Euphorbia heterophylla), application rate 140 (kg ai/ha; footnote: g ai/ha), read-out: Visual Growth Reduction (%) 14 Days After Application EPHHL

SMILES | pest or weed control at 140 g/ha [%]
COC(=O)c1nc(-c2ccc(F)nc2)c(F)c(N)c1Cl [Compound 23] | 85 to 94

Same assay, conditions: Helianthus annuus, post-emergence, 336 h, HELAN: sunflower (Helianthus annuus), application rate 70 (kg ai/ha; footnote: g ai/ha), read-out: Visual Growth Reduction (%) 14 Days After Application HELAN

SMILES | pest or weed control at 70 g/ha [%]
COC(=O)c1nc(-c2ccc(F)nc2)c(F)c(N)c1Cl [Compound 23] | 85 to 94

Same assay, conditions: Helianthus annuus, post-emergence, 336 h, HELAN: sunflower (Helianthus annuus), application rate 140 (kg ai/ha; footnote: g ai/ha), read-out: Visual Growth Reduction (%) 14 Days After Application HELAN

SMILES | pest or weed control at 140 g/ha [%]
COC(=O)c1nc(-c2ccc(F)nc2)c(F)c(N)c1Cl [Compound 23] | 85 to 94

Same assay, conditions: Viola tricolor, post-emergence, 336 h, VIOTR: wild pansy (Viola tricolor), application rate 70 (kg ai/ha; footnote: g ai/ha), read-out: Visual Growth Reduction (%) 14 Days After Application VIOTR

SMILES | pest or weed control at 70 g/ha [%]
COC(=O)c1nc(-c2ccc(F)nc2)c(F)c(N)c1Cl [Compound 23] | 30 to 44

Same assay, conditions: Viola tricolor, post-emergence, 336 h, VIOTR: wild pansy (Viola tricolor), application rate 140 (kg ai/ha; footnote: g ai/ha), read-out: Visual Growth Reduction (%) 14 Days After Application VIOTR

SMILES | pest or weed control at 140 g/ha [%]
COC(=O)c1nc(-c2ccc(F)nc2)c(F)c(N)c1Cl [Compound 23] | 45 to 59

Tested on: not given
Experiment: not given
Details: not given

melting point [°C] | SMILES
167 to 168 | COC(=O)c1nc(-c2ccc(F)nc2)c(F)c(N)c1Cl [Compound 23]
